Common to all, as to type: functional
For experiment [1], the system named is Staphylococcus aureus. The experiment in a line: Antibacterial activity against Staphylococcus aureus assessed as bacterial growth inhibition by dilution method.
For experiment [2], the system named is Staphylococcus aureus. Description: Potency index, ratio of Linezolid MIC to test compound MIC for antibacterial activity against methicillin- resistant Staphylococcus aureus assessed as bacterial growth inhibition by dilution method.
Experiment [3] relates to Staphylococcus aureus. Description: Antibacterial activity against methicillin- resistant Staphylococcus aureus assessed as bacterial growth inhibition by dilution method.
Experiment [4] has as its system Escherichia coli. Description: Antibacterial activity against Escherichia coli MTCC 443 assessed as bacterial growth inhibition incubated for 24 hrs by serial dilution method.
Experiment [5] concerns Klebsiella pneumoniae. The experiment in a line: Antibacterial activity against Klebsiella pneumoniae NCDC 138 assessed as bacterial growth inhibition incubated for 24 hrs by serial dilution method.
Experiment [6] concerns Pseudomonas aeruginosa. Description: Antibacterial activity against Pseudomonas aeruginosa assessed as bacterial growth inhibition by broth dilution method.
Experiment [7] relates to Klebsiella pneumoniae. Description: Antibacterial activity against Klebsiella pneumoniae assessed as bacterial growth inhibition by broth dilution method. (In general: In broth dilution the organism is exposed to a series of concentrations in liquid medium.)
In experiment [8] the test system is Pseudomonas aeruginosa. The experiment in a line: Potency index, ratio of Penicillin MIC to test compound MIC for antibacterial activity against Pseudomonas aeruginosa assessed as bacterial growth inhibition by broth dilution method.
The subject of experiment [9] is Klebsiella pneumoniae. The experiment in a line: Potency index, ratio of Penicillin MIC to test compound MIC for antibacterial activity against Klebsiella pneumoniae assessed as bacterial growth inhibition by broth dilution method.
Experiment [10] concerns Pseudomonas aeruginosa. Description: Antibacterial activity against Pseudomonas aeruginosa MTCC 1688 assessed as bacterial growth inhibition by broth microdilution method.
In experiment [11] the test system is Staphylococcus aureus. Description: Antibacterial activity against Staphylococcus aureus MTCC 96 assessed as bacterial growth inhibition by broth microdilution method.
In experiment [12] the test system is Escherichia coli. The experiment in a line: Potency index, ratio of Ciprofloxacin MIC to test compound MIC for antibacterial activity against Escherichia coli MTCC 443 assessed as bacterial growth inhibition by broth microdilution method.
Experiment [13] deals with Streptococcus pyogenes. The experiment in a line: Potency index, ratio of Ciprofloxacin MIC to test compound MIC for antibacterial activity against Streptococcus pyogenes MTCC 442 assessed as bacterial growth inhibition by broth microdilution method.
Experiment [14] concerns Staphylococcus aureus. The experiment in a line: Potency index, ratio of Ciprofloxacin MIC to test compound MIC for antibacterial activity against Staphylococcus aureus MTCC 96 assessed as bacterial growth inhibition by broth microdilution method.
For experiment [15], the system named is Streptococcus pyogenes. The experiment in a line: Antibacterial activity against Streptococcus pyogenes MTCC 442 assessed as bacterial growth inhibition by broth microdilution method.
For experiment [16], the system named is Escherichia coli. The experiment in a line: Antibacterial activity against Escherichia coli MTCC 443 assessed as bacterial growth inhibition by broth microdilution method.
In experiment [17] the test system is Pseudomonas aeruginosa. The experiment in a line: Potency index, ratio of Ciprofloxacin MIC to test compound MIC for antibacterial activity against Pseudomonas aeruginosa MTCC 1688 assessed as bacterial growth inhibition by broth microdilution method.
The subject of experiment [18] is Pseudomonas aeruginosa. The experiment in a line: Antibacterial activity against Pseudomonas aeruginosa ATCC 27853 assessed as bacterial growth inhibition incubated for 16 to 20 hrs by CLSI based broth microdilution method. As to conditions: time 16-20 hrs.
The test system of experiment [19] is Staphylococcus aureus. The experiment in a line: Antibacterial activity against Staphylococcus aureus ATCC 25923 assessed as bacterial growth inhibition incubated for 18 to 20 hrs by broth microdilution method. Conditions: time 18-20 hrs.
The test system of experiment [20] is Escherichia coli. Description: Antibacterial activity against Escherichia coli ATCC 25922 assessed as bacterial growth inhibition incubated for 16 to 20 hrs by CLSI based broth microdilution method. Conditions: time 16-20 hrs.
For experiment [21], the system named is Staphylococcus aureus. The experiment in a line: Antibacterial activity against Staphylococcus aureus ATCC 29213 assessed as bacterial growth inhibition incubated for 16 to 20 hrs by CLSI based broth microdilution method. As to conditions: time 16-20 hrs.
The test system of a further experiment is Bacillus subtilis. The experiment in a line: Antibacterial activity against Bacillus subtilis assessed as bacterial growth inhibition by agar well diffusion method.
In experiment [22] the test system is Pseudomonas aeruginosa. Description: Antibacterial activity against Pseudomonas aeruginosa assessed as bacterial growth inhibition by agar well diffusion method. On the technique in general: Agar diffusion results depend on both activity and mobility in agar.
The test system of experiment [23] is Escherichia coli. The experiment in a line: Antibacterial activity against Escherichia coli assessed as bacterial growth inhibition by agar well diffusion method.
For experiment [24], the system named is Staphylococcus aureus. Description: Antibacterial activity against Staphylococcus aureus assessed as bacterial growth inhibition by agar well diffusion method.

Converted amounts (≈) assume the structure as drawn.

The MIC is the lowest concentration found to suppress growth. On to `CC(=O)NC[C@H]1CN(c2ccc(-n3cc(-c4ncccn4)nn3)c(F)c2)C(=O)O1`, for which the minimum inhibitory concentration (MIC) with Staphylococcus aureus [1] was determined as 2 µg/mL (≈ 5.03 µM); with Staphylococcus aureus [3], 0.5 µg/mL (≈ 1.26 µM). Also, the Ratio in the experiment on Staphylococcus aureus [2] was determined as 4.

Regarding `CC(C)(NS(=O)(=O)c1ccccc1)c1cn(-c2ccc(Br)cc2)nn1`, the MIC with Escherichia coli [4] came out at 25 µg/mL (≈ 59.3 µM); with Klebsiella pneumoniae [5], 12.5 µg/mL (≈ 29.7 µM).

As to `CC1(C)O[C@@H]2[C@@H](CC[C@]3(COC(C)(C)O3)[C@H]2OCc2cn(-c3c(Cl)cc(Cl)cc3Cl)nn2)O1`, the MIC was 1.17 µg/mL (≈ 2.26 µM) with Pseudomonas aeruginosa [6] and 9.37 µg/mL (≈ 18.1 µM) in the experiment on Klebsiella pneumoniae [7]. In addition, the values for the Ratio in the experiment with Pseudomonas aeruginosa [8] and with Klebsiella pneumoniae [9] were 16 and 4, respectively.

As to `CN(C)Cc1cn([C@@H]2C(=O)N3[C@@H]2SC(C)(C)[C@@H]3C(=O)O)nn1`, the MIC in the experiment on Pseudomonas aeruginosa [10], in the experiment with Staphylococcus aureus [11], with Streptococcus pyogenes [15] and in the experiment with Escherichia coli [16] was 0.5 µg/mL (≈ 1.54 µM) in each case. For the same molecule, the Ratio in the experiment with Escherichia coli [12], with Streptococcus pyogenes [13], with Staphylococcus aureus [14] and in the experiment with Pseudomonas aeruginosa [17] was 2.5 throughout.

With `CC(=O)OC[C@@H]1O[C@H](n2cc(CNC(=O)c3ccc(-c4ccc(Br)cc4)o3)nn2)[C@@H](OC(C)=O)[C@H](OC(C)=O)[C@H]1OC(C)=O`, the MIC in the experiment with Pseudomonas aeruginosa [18], in the experiment on Staphylococcus aureus [19], in the experiment on Escherichia coli [20] and with Staphylococcus aureus [21] was over 250 µg/mL each time.

In the case of `COc1ccc(-c2cc(-c3cccs3)nc(OCc3cn(CC(=O)Nc4ccc(C(C)=O)cc4)nn3)c2O)cc1`, the MIC in the experiment on Bacillus subtilis, with Pseudomonas aeruginosa [22], in the experiment with Escherichia coli [23] and with Staphylococcus aureus [24] was 0.5 µg/mL (≈ 0.9 µM) in each case.

The record behind these values is ChEMBL document CHEMBL5344406, “1,2,3-Triazole-containing hybrids with potential antibacterial activity against ESKAPE pathogens” (2022).
